Assay [1] has as its target T1, human α1A-AR WT (Homo sapiens, UniProt P35348).
T1 construct: expressed in transfected cells; host or cells: COS-7, transient (calcium phosphate)
T1 sequence (P35348 1-466): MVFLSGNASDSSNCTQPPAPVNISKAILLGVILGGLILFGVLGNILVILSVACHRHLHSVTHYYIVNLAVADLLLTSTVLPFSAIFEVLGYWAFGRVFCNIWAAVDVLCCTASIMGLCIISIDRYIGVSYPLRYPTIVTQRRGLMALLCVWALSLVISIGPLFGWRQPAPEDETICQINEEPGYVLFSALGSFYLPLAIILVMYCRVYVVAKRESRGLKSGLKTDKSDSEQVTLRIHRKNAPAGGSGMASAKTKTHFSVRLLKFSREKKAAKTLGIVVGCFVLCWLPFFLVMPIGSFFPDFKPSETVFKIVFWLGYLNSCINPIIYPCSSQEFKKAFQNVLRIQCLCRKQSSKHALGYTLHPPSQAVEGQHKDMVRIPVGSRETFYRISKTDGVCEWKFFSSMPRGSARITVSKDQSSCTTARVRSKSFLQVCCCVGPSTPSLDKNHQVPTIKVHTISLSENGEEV
Put plainly: Competition binding with ^125I-HEAT, wild type receptor. The protocol: (§1) CHO cells stably expressing α1-ARs were kindly provided by Dr. Hervé Paris (INSERM U858, Toulouse, France) and were grown in a 50∶50 Dulbecco's Modified Eagle's Medium (DMEM)/Ham's F12 medium supplemented with 10% (v/v) foetal bovine serum (FBS), glutamine (2 mM), penicillin (100 units/ml) and streptomycin (100 µg/ml) at 37°C with 5% CO2. COS-7 cells were grown at 37°C under 5% CO2 in Dulbecco's modified Eagle's medium containing 10% fetal calf serum, 1% penicillin and 1% glutamine (Sigma-Aldrich, St Quentin-Fallavier, France). At 80% confluence, the cells were transfected using a calcium phosphate precipitation method for transient expression of the genetic construct. After 48 h incubation at 37°C, cells were harvested and the membranes were prepared as follow. Cells were washed with ice-cold phosphate buffer and centrifuged at 1700 g for 10 min (4°C). The pellet was suspended in ice-cold buffer (1 mM EDTA, 25 mM sodium phosphate, and 5 mM MgCl2, pH 7.4) and homogenized using an Potter-Elvehjem homogenizer (Fisher Scientific Labosi, Elancourt, France). The homogenate was centrifuged at 1700 g for 15 min (4°C). The sediment was resuspended in buffer, homogenized, and centrifuged at 1700 g for 15 min (4°C). The combined supernatants were centrifuged at 35,000 g for 30 min (4°C), and the pellet was suspended in the same buffer (0.1 ml/dish). […] Cells were grown in a 50∶50 Dulbecco's Modified Eagle's Medium (DMEM)/Ham's F12 medium supplemented with 10% (v/v) foetal bovine serum (FBS), glutamine (2 mM), penicillin (100 units/ml) and streptomycin (100 µg/ml) at 37°C with 5% CO2. Media was changed every 2–3 days and cells were passaged when confluent with 0.05% trypsin and 0.02% EDTA.
(§2) Binding experiments were performed in a 100 µL reaction mix at room temperature in buffer composed of 50 mM Tris-HCl, pH 7.4, 10 mM MgCl2, 1 g/L BSA. Reactions were stopped by filtration through 96 GF/C filter plates pre-incubated with 0.5% polyethylenimine.
(§3) Binding data were analyzed by nonlinear regression using the KaleidaGraph 4.0 software (Synergy software, Reading, PA). pKD values and Bmax (number of binding sites) were determined by applying a nonlinear regression to data obtained with saturation binding assays. […] Data resulting from competition binding assays were analyzed using the Hill equation for IC50 and curve slope estimations. […] The linear curves were analyzed with IC50 = Ki+(L/KD)*Ki. Dissociation kinetics were analyzed using a simple equation of exponential decay BS * exp (-Koff*t), where BS is the specific binding at time zero and Koff is the dissociation rate constant. Results are expressed as mean ± s.e. mean from n independent experiments. […]

Assay [2] has as its target T2, human α1A-AR F187A variant (Homo sapiens, UniProt P35348, F187A).
T2 construct: expressed in transfected cells; host or cells: COS-7, transient (calcium phosphate)
T2 sequence (P35348 1-466 F187A): T1 sequence (P35348 1-466) with F187A
In words: Saturation binding of ^125I-HEAT. The conditions noted are these: F187A variant relative to wild type.
Description: (§4) α1A-AR cDNA inserted in the prK5 vector was kindly provided by Michael Brownstein (Craig Venter Institute, Rockville, MD). Point mutations were introduced into the α1A-AR gene by sense and antisense primers (Sigma-Aldrich, St Quentin-Fallavier, France) containing the desired changes, using the QuikChange Site-Directed Mutagenesis kit. The incorporation of each mutation was verified by DNA sequencing.
as §1, §2
Binding data were analyzed by nonlinear regression using the KaleidaGraph 4.0 software (Synergy software, Reading, PA). pKD values and Bmax (number of binding sites) were determined by applying a nonlinear regression to data obtained with saturation binding assays. The nonlinear regression used was BS = (Bmax*A)/KD+A, where BS is the specific binding, Bmax the number of binding sites, A the concentration of radioligand, and KD the dissociation constant of the radioligand. Data resulting from competition binding assays were analyzed using the Hill equation for IC50 and curve slope estimations. […] The linear curves were analyzed with IC50 = Ki+(L/KD)*Ki. Dissociation kinetics were analyzed using a simple equation of exponential decay BS * exp (-Koff*t), where BS is the specific binding at time zero and Koff is the dissociation rate constant. Results are expressed as mean ± s.e. mean from n independent experiments. One-way Anova test was used to compare values. A p<0.05 was accepted for statistical significance.

For assay [3], the target named is T3, human α1A-AR D106A variant (Homo sapiens, UniProt P35348, D106A).
T3 construct: expressed in transfected cells; host or cells: COS-7, transient (calcium phosphate)
T3 sequence (P35348 1-466 D106A): T1 sequence (P35348 1-466) with D106A
In words: Competition binding with ^125I-HEAT.
Description: as §4
as §1, with “Media was changed every 2–3 days and cells were passaged when confluent with 0.05% trypsin and 0.02% EDTA.” left out
as §3

The target of assay [4] is T4, human α1A-AR F86A variant (Homo sapiens, UniProt P35348, F86A).
T4 construct: expressed in transfected cells; host or cells: COS-7, transient (calcium phosphate)
T4 sequence (P35348 1-466 F86A): T1 sequence (P35348 1-466) with F86A
Put plainly: Competition binding with ^125I-HEAT.
Description: as §4
as §1, with “Media was changed every 2–3 days and cells were passaged when confluent with 0.05% trypsin and 0.02% EDTA.” left out
as §3

In assay [5] the target is T5, α1A-AR (Homo sapiens, UniProt P35348).
T5 sequence (P35348 1-466): T1 sequence (P35348 1-466)
In words: Competition binding with ^3H-prazosin. The conditions noted are these: inhibition of ^3H-prazosin 2 nM. Also on record: expressed in transfected cells. The protocol:
CHO cells stably expressing α1-ARs were kindly provided by Dr. Hervé Paris (INSERM U858, Toulouse, France) and were grown in a 50∶50 Dulbecco's Modified Eagle's Medium (DMEM)/Ham's F12 medium supplemented with 10% (v/v) foetal bovine serum (FBS), glutamine (2 mM), penicillin (100 units/ml) and streptomycin (100 µg/ml) at 37°C with 5% CO2. COS-7 cells were grown at 37°C under 5% CO2 in Dulbecco's modified Eagle's medium containing 10% fetal calf serum, 1% penicillin and 1% glutamine (Sigma-Aldrich, St Quentin-Fallavier, France). At 80% confluence, the cells were transfected using a calcium phosphate precipitation method for transient expression of the genetic construct. […]
as §3

In assay [6] the test system is α1A-AR. Also on record: method as in PMID 20015090. The conditions noted are these: cited from earlier work.
In assay [7] the target is α1B-AR. Set-up: method as in PMID 20015090. As to conditions: α1B-AR expressed in yeast; read-out: affinity; cited from earlier work.
The target of assay [8] is α1D-AR. Also on record: method as in PMID 20015090. As to conditions: α1D-AR expressed in yeast; read-out: affinity; cited from earlier work.
The target in assay [9] is T5, α1A-AR. Put plainly: Intracellular Ca^2+ release in CHO-K1 cells expressing the α1A-AR. Format: cell-based. Also on record: expressed in transfected cells. The conditions noted are these: for Emax: CHO-K1, read-out: Emax, Ca^2+ release. Here is the method:
as §1
All experiments were performed in duplicate.

Setting [10] is: linear fit of ρ-Da1a IC50 against ^125I-HEAT concentration.

Where a chain is given by its changes, count along the chain named.

In the case of `O=C1c2ccccc2CCC1CNCCc1ccc(O)cc1` (stereo not shown) [HEAT], the “Ratio (Ki relative to WT)” value in assay [1] (WT) stood at 1. Further, the pKi in [1] (WT, competition with ^125I-HEAT 200 pM) is reported as 9.57±0.08; in assay [3] (competition with ^125I-HEAT 200 pM), 9.74±0.12; in assay [4] (competition with ^125I-HEAT […]), 8.21±0.09; in [5] (n = 3), 9.66±0.08 nM. In addition, the Kd (commonly the concentration at which binding is half-saturated) in assay [1] (setting [10]) came out at 0.0435 nM. Further, the pKd (commonly the negative decadic logarithm of the Kd, by convention in mol/L) in assay [1] (setting [10]) is given as 10.36. For the same compound, the “increase in HEAT affinity” value in assay [2] was 4.5 fold. For the same compound, the “Ratio (reduction of affinity relative to WT)” value in [3] was 0.67; in assay [4] it was 23 ^*. The Hill slope – broadly, a measure of the steepness of the concentration-response curve – in [5] is 0.85.
Take ρ-Da1a: the “displacement of ^3H-prazosin binding” value in assay [6] (yeast membranes expressing the α1A-AR) is on record as 85%. For the same compound, the Ki in [6] (α1A-AR expressed in yeast, read-out: affinity) was 0.35 nM; in assay [7], 317 nM; in [8], 420 nM.
In the case of `CS(=O)(=O)Nc1c(O)ccc2c1CCCC2C1=NCCN1` (stereo not shown) [A61603], the “Emax, Ca^2+ release” value in assay [9] (CHO-K1 cells expressing the α1A-AR, agonist alone, A23187 1 µM) was 75.5±1.3 percentage of peak A23187 response.
With `NC[C@H](O)c1ccc(O)c(O)c1` [noradrenaline], the Emax (usually the greatest response seen or fitted, relative to the assay's reference) in assay [9] worked out at 77.8 ± 1.5%.
The same measure, in the same setting: for `Cc1cc(C(C)(C)C)c(O)c(C)c1CC1=NCCN1` [oxymetazoline] the value was 60.8 ± 1.3%.
Turning to `CNC[C@H](O)c1cccc(O)c1` [phenylephrine], in assay [9], the Emax is 64.8 ± 2.4%.

The values above are taken from article PMC3723878 (PLoS ONE, 2013).
